Tests used:
Format in all cases: functional, cell-based
[1] = target: T1, Metabotropic glutamate receptor 2 (Homo sapiens, UniProt Q14416); assay: Agonist activity at human mGluR2 expressed in CHO cells at by [S35]GTPgammaS binding assay relative to glutamate
Target sequence in this assay (Q14416 19-872 limits assumed): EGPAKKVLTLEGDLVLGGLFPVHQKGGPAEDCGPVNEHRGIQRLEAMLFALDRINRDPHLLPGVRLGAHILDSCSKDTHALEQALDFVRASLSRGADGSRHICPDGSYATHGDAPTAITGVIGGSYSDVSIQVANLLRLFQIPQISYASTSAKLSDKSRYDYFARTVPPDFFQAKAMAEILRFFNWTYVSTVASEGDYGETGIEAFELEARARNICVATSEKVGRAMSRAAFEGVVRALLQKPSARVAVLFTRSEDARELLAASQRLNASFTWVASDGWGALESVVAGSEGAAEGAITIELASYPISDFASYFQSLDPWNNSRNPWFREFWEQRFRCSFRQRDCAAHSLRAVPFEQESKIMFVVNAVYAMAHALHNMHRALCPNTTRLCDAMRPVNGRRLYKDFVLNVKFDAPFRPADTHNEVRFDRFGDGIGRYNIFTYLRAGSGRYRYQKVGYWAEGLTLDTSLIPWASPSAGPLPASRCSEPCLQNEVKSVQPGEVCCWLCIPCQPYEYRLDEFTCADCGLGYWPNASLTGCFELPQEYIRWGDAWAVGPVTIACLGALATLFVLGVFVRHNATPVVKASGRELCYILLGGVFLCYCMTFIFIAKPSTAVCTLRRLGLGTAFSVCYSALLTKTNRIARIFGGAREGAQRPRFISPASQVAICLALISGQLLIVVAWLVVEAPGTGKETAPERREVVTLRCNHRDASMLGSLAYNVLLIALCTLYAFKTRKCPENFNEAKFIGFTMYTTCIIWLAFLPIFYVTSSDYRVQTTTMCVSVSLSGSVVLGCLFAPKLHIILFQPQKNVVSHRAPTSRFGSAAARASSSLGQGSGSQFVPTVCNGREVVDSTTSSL

[2] = target: T1, Metabotropic glutamate receptor 2; assay: Agonist activity at human mGluR2 expressed in CHO cells at by [S35]GTPgammaS binding assay
Target sequence in this assay (Q14416 whole entry): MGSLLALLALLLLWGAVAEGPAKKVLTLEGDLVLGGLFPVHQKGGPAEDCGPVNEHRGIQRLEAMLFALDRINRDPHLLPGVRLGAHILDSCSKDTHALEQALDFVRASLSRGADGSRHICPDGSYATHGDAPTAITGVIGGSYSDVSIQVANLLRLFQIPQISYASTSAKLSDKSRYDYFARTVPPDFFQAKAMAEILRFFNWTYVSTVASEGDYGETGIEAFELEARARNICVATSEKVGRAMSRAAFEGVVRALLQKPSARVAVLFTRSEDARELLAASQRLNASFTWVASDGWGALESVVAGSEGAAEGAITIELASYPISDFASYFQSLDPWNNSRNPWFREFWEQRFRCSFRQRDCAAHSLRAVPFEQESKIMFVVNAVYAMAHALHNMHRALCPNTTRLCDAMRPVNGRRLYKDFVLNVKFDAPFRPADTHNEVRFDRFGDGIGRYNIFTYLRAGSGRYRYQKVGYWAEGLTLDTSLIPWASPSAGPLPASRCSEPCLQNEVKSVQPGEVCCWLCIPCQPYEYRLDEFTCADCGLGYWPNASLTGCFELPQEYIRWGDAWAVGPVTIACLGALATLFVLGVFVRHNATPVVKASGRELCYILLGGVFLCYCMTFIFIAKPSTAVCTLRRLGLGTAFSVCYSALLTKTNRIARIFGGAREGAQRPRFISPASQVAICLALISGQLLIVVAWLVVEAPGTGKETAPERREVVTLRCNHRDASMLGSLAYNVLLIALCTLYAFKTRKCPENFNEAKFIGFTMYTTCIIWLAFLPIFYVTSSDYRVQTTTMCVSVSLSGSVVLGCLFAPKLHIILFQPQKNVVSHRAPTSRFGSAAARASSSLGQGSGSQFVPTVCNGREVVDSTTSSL

[3] = target: T1, Metabotropic glutamate receptor 2; assay: Agonist activity at human mGluR2 expressed in HEK293 cells assessed as induction of calcium release by FLIPR assay
Target sequence in this assay (Q14416 whole entry): as above

| Compound | Emax [1] | EC50 [2] | EC50 [3] |
| --- | --- | --- | --- |
| CCCn1ccc2cc(OCCCc3cccnc3)cc(Cl)c2c1=O | 75% | 631 nM |  |
| CCCn1ccc2cc(-c3ccc(OCc4cccnc4)nc3)cc(Cl)c2c1=O | 120% | 316 nM |  |
| CCCn1ccc2cc(-c3ccc(Oc4ccccc4)cc3)cc(Cl)c2c1=O | 88% | 2000 nM |  |
| CCCn1ccc2cc(-c3ccc(OCc4ccc(Cl)nc4)cc3)cc(Cl)c2c1=O | 81% | 398 nM |  |
| CCCn1ccc2cc(-c3ccc(Oc4ccncc4)cc3)cc(Cl)c2c1=O | 90% | 158 nM |  |
| CCCn1ccc2cc(-c3ccc(Oc4ccccc4)nc3)cc(Cl)c2c1=O | 92% | 501 nM |  |
| CCCn1ccc2cc(OCCc3cccnc3)cc(Cl)c2c1=O | 47% | 794 nM |  |
| CCCn1ccc2cc(N3CCC(O)CC3)cc(Cl)c2c1=O | 106% | 5010 nM |  |
| CCCn1ccc2cc(-c3ccncc3)cc(Cl)c2c1=O | 73% | 1260 nM |  |
| CCCn1ccc2cc(-c3ccc(OCc4ccc(C(F)(F)F)nc4)cc3)cc(Cl)c2c1=O | 170% | 251 nM |  |
| CCCn1ccc2cc(-c3cccnc3)cc(C#N)c2c1=O |  | > 50100 nM |  |
| CCCn1ccc2cc(-c3cn[nH]c3)cc(Cl)c2c1=O | 65% | 1580 nM |  |
| CCCn1ccc2cc(NCc3cccnc3)cc(Cl)c2c1=O | 82% | 3160 nM |  |
| CCCn1ccc2cc(N3CCNCC3)cc(Cl)c2c1=O | 47% | > 10000 nM |  |
| CCCn1ccc2cc(-c3ccc(OC)cc3)cc(Cl)c2c1=O | 136% | 316 nM |  |
| CCCn1ccc2cc(-c3ccc(OCCc4ccccc4)nc3)cc(Cl)c2c1=O | 103% | 631 nM |  |
| CCCn1ccc2cc(-c3ccc(N(C)C)nc3)cc(Cl)c2c1=O | 85% | 5010 nM |  |
| CCCn1ccc2cc(N3CCOCC3)cc(Cl)c2c1=O | 104% | 5010 nM | 2510 nM |
| CCCn1ccc2cc(-c3cncnc3)cc(Cl)c2c1=O | 28% | 3980 nM |  |
| CCCn1ccc2cc(OCc3cccnc3)cc(Cl)c2c1=O | 126% | 2510 nM |  |
| CCCn1ccc2cc(N3CCOCC3)ccc2c1=O | 66% | > 10000 nM |  |
| CCCn1ccc2cc(-c3cccnc3)ccc2c1=O | 81% | 7940 nM |  |
| CCCn1ccc2cc(-c3cnc(OC)c(F)c3)cc(Cl)c2c1=O | 75% | 398 nM |  |
| CCCn1ccc2cc(-c3cccnc3)cc(Cl)c2c1=O | 83% | 631 nM |  |
| CCCn1ccc2cc(-c3ccc(OCc4cccnc4)cc3)cc(Cl)c2c1=O | 64% | 1260 nM |  |
| CCCn1ccc2cc(-c3ccc(OC)nc3)cc(Cl)c2c1=O | 121% | 794 nM |  |
| CCCn1ccc2cc(-c3ccc(N4CCOCC4)nc3)cc(Cl)c2c1=O | 84% | 794 nM |  |
